# Results: ChEMBL document CHEMBL3885861, “Open TG-GATES”
# Species on record: Rattus norvegicus
# Experiment: Open TG-GATES - Regimen: Daily Repeat
# Type: toxicity, organism-based, Sprague-Dawley
# Parameters: regimen Daily Repeat, gender Male, age 6 weeks
# Settings: in vivo, po, 0 mg/kg, route gavage, dose level Control; for APTT / Bas / Eos / Fbg / Hb / Ht / Lym / MCH / MCHC / MCV / Mono / Neu / PT / Plat / RBC / Ret / WBC: tissue Blood; for KIDNEY_L / KIDNEY_R / KIDNEY_TOTAL: tissue Kidney; for LIVER: tissue Liver; for ALP / ALT / AST / BUN / CRE / Ca / DBIL / GLC / IP / K / LDH / Na / PL / RALB / TBIL / TC / TG / TP / gamma-GTP: tissue Plasma
smiles,measurement,setting,value
CSc1ccc2c(c1)N(CCC1CCCCN1C)c1ccccc1S2 (stereo not drawn) [THIORIDAZINE],TERMINAL_BW,"72 h, time 3 day",237.9 g
same,APTT,"72 h, time 3 day",16.6 s
same,Bas,"72 h, time 3 day",0%
same,Eos,"72 h, time 3 day",1%
same,Fbg,"72 h, time 3 day",215.2 mg/dL
same,Hb,"72 h, time 3 day",13.7 g/dL
same,Ht,"72 h, time 3 day",40.7%
same,Lym,"72 h, time 3 day",78%
same,MCH,"72 h, time 3 day",21.7 pg
same,MCHC,"72 h, time 3 day",33.7%
same,MCV,"72 h, time 3 day",64.4 fL
same,Mono,"72 h, time 3 day",8.4%
same,Neu,"72 h, time 3 day",13%
same,PT,"72 h, time 3 day",11.9 s
same,Plat,"72 h, time 3 day",107.7 x10_4/uL
same,RBC,"72 h, time 3 day",631.6 x10_4/ul
same,Ret,"72 h, time 3 day",8.1%
same,WBC,"72 h, time 3 day",120 x10_2/uL
same,KIDNEY_L,"72 h, time 3 day",1.1 g
same,KIDNEY_R,"72 h, time 3 day",1.1 g
same,KIDNEY_TOTAL,"72 h, time 3 day",2.2 g
same,LIVER,"72 h, time 3 day",12 g
same,ALP,"72 h, time 3 day",821.6 IU/L
same,ALT,"72 h, time 3 day",37 IU/L
same,AST,"72 h, time 3 day",63.8 IU/L
same,BUN,"72 h, time 3 day",16.6 mg/dL
same,CRE,"72 h, time 3 day",0.5 mg/dL
same,Ca,"72 h, time 3 day",11.1 mg/dL
same,DBIL,"72 h, time 3 day",0.034 mg/dL
same,GLC,"72 h, time 3 day",193.4 mg/dL
same,IP,"72 h, time 3 day",9.3 mg/dL
same,K,"72 h, time 3 day",5.2 meq/L
same,LDH,"72 h, time 3 day",95 IU/L
same,Na,"72 h, time 3 day",139.4 meq/L
same,PL,"72 h, time 3 day",159.6 mg/dL
same,RALB,"72 h, time 3 day",4.2 g/dL
same,TBIL,"72 h, time 3 day",0.4 mg/dL
same,TC,"72 h, time 3 day",87 mg/dL
same,TG,"72 h, time 3 day",88.2 mg/dL
same,TP,"72 h, time 3 day",6 g/dL
same,gamma-GTP,"72 h, time 3 day",1.2 IU/L
same,TERMINAL_BW,"[…], time 7 day",272.6 g
same,TERMINAL_BW,"[…], time 14 day",326.5 g
same,TERMINAL_BW,"[…], time 28 day",411.3 g
same,APTT,"[…], time 7 day",15.1 s
same,Bas,"[…], time 7 day",0%
same,Eos,"[…], time 7 day",0.6%
same,Fbg,"[…], time 7 day",241.2 mg/dL
same,Hb,"[…], time 7 day",13.9 g/dL
same,Ht,"[…], time 7 day",41.7%
same,Lym,"[…], time 7 day",83%
same,MCH,"[…], time 7 day",21.7 pg
same,MCHC,"[…], time 7 day",33.3%
same,MCV,"[…], time 7 day",65 fL
same,Mono,"[…], time 7 day",6.2%
same,Neu,"[…], time 7 day",10.2%
same,PT,"[…], time 7 day",11.6 s
same,Plat,"[…], time 7 day",100.8 x10_4/uL
same,RBC,"[…], time 7 day",642.4 x10_4/ul
same,Ret,"[…], time 7 day",5.4%
same,WBC,"[…], time 7 day",141.4 x10_2/uL
same,APTT,"[…], time 14 day",16.8 s
same,Bas,"[…], time 14 day",0%
same,Eos,"[…], time 14 day",0.6%
same,Fbg,"[…], time 14 day",243.4 mg/dL
same,Hb,"[…], time 14 day",14.4 g/dL
same,Ht,"[…], time 14 day",42.9%
same,Lym,"[…], time 14 day",78.4%
same,MCH,"[…], time 14 day",20.6 pg
same,MCHC,"[…], time 14 day",33.5%
same,MCV,"[…], time 14 day",61.5 fL
same,Mono,"[…], time 14 day",6.4%
same,Neu,"[…], time 14 day",14.6%
same,PT,"[…], time 14 day",11.5 s
same,Plat,"[…], time 14 day",106.3 x10_4/uL
same,RBC,"[…], time 14 day",697.6 x10_4/ul
same,Ret,"[…], time 14 day",4.5%
same,WBC,"[…], time 14 day",129.7 x10_2/uL
same,APTT,"[…], time 28 day",18.1 s
same,Bas,"[…], time 28 day",0%
same,Eos,"[…], time 28 day",0.6%
same,Fbg,"[…], time 28 day",234.6 mg/dL
same,Hb,"[…], time 28 day",15.2 g/dL
same,Ht,"[…], time 28 day",45.5%
same,Lym,"[…], time 28 day",83.4%
same,MCH,"[…], time 28 day",19.8 pg
same,MCHC,"[…], time 28 day",33.4%
same,MCV,"[…], time 28 day",59.2 fL
same,Mono,"[…], time 28 day",7.6%
same,Neu,"[…], time 28 day",8.2%
same,PT,"[…], time 28 day",11.8 s
same,Plat,"[…], time 28 day",98 x10_4/uL
same,RBC,"[…], time 28 day",769.4 x10_4/ul
same,Ret,"[…], time 28 day",3%
same,WBC,"[…], time 28 day",131.4 x10_2/uL
same,KIDNEY_L,"[…], time 7 day",1.2 g
same,KIDNEY_R,"[…], time 7 day",1.2 g
same,KIDNEY_TOTAL,"[…], time 7 day",2.4 g
same,KIDNEY_L,"[…], time 14 day",1.3 g
same,KIDNEY_R,"[…], time 14 day",1.3 g
same,KIDNEY_TOTAL,"[…], time 14 day",2.6 g
same,KIDNEY_L,"[…], time 28 day",1.5 g
same,KIDNEY_R,"[…], time 28 day",1.5 g
same,KIDNEY_TOTAL,"[…], time 28 day",2.9 g
same,LIVER,"[…], time 7 day",13.4 g
same,LIVER,"[…], time 14 day",15.6 g
same,LIVER,"[…], time 28 day",18.7 g
same,ALP,"[…], time 7 day",973 IU/L
same,ALT,"[…], time 7 day",32.4 IU/L
same,AST,"[…], time 7 day",65 IU/L
same,BUN,"[…], time 7 day",18.2 mg/dL
same,CRE,"[…], time 7 day",0.5 mg/dL
same,Ca,"[…], time 7 day",11.4 mg/dL
same,DBIL,"[…], time 7 day",0.016 mg/dL
same,GLC,"[…], time 7 day",181.2 mg/dL
same,IP,"[…], time 7 day",9 mg/dL
same,K,"[…], time 7 day",5.2 meq/L
same,LDH,"[…], time 7 day",149.4 IU/L
same,Na,"[…], time 7 day",141.6 meq/L
same,PL,"[…], time 7 day",175 mg/dL
same,RALB,"[…], time 7 day",4 g/dL
same,TBIL,"[…], time 7 day",0.3 mg/dL
same,TC,"[…], time 7 day",89.2 mg/dL
same,TG,"[…], time 7 day",140.8 mg/dL
same,TP,"[…], time 7 day",5.9 g/dL
same,gamma-GTP,"[…], time 7 day",1.4 IU/L
same,ALP,"[…], time 14 day",864.8 IU/L
same,ALT,"[…], time 14 day",33.4 IU/L
same,AST,"[…], time 14 day",57.2 IU/L
same,BUN,"[…], time 14 day",19 mg/dL
same,CRE,"[…], time 14 day",0.5 mg/dL
same,Ca,"[…], time 14 day",10.8 mg/dL
same,DBIL,"[…], time 14 day",0.014 mg/dL
same,GLC,"[…], time 14 day",189.8 mg/dL
same,IP,"[…], time 14 day",8 mg/dL
same,K,"[…], time 14 day",4.9 meq/L
same,LDH,"[…], time 14 day",96.8 IU/L
same,Na,"[…], time 14 day",139.8 meq/L
same,PL,"[…], time 14 day",163.6 mg/dL
same,RALB,"[…], time 14 day",4.1 g/dL
same,TBIL,"[…], time 14 day",0.3 mg/dL
same,TC,"[…], time 14 day",71.8 mg/dL
same,TG,"[…], time 14 day",200.4 mg/dL
same,TP,"[…], time 14 day",6.3 g/dL
same,gamma-GTP,"[…], time 14 day",0.8 IU/L
same,ALP,"[…], time 28 day",618.8 IU/L
same,ALT,"[…], time 28 day",34.6 IU/L
same,AST,"[…], time 28 day",62 IU/L
same,BUN,"[…], time 28 day",20.4 mg/dL
same,CRE,"[…], time 28 day",0.6 mg/dL
same,Ca,"[…], time 28 day",10.7 mg/dL
same,DBIL,"[…], time 28 day",0 mg/dL
same,GLC,"[…], time 28 day",191.4 mg/dL
same,IP,"[…], time 28 day",6.7 mg/dL
same,K,"[…], time 28 day",4.5 meq/L
same,LDH,"[…], time 28 day",135.2 IU/L
same,Na,"[…], time 28 day",139.4 meq/L
same,PL,"[…], time 28 day",170.8 mg/dL
same,RALB,"[…], time 28 day",4.1 g/dL
same,TBIL,"[…], time 28 day",0.3 mg/dL
same,TC,"[…], time 28 day",87.4 mg/dL
same,TG,"[…], time 28 day",186.2 mg/dL
same,TP,"[…], time 28 day",6.5 g/dL
